Results on 82 compounds are retold here after the Kinase Knowledgebase extract (Sharma et al. 2016).

SMILES strings stand for the structures. Bounds are passed on as bounds.

The target of this assay is PIK3CG (human) (UniProt P48736). The experiment in a line: Inhibition of PIK3CG Kinase Activity.
Chain of PIK3CG (human) (P48736 whole entry, looked up): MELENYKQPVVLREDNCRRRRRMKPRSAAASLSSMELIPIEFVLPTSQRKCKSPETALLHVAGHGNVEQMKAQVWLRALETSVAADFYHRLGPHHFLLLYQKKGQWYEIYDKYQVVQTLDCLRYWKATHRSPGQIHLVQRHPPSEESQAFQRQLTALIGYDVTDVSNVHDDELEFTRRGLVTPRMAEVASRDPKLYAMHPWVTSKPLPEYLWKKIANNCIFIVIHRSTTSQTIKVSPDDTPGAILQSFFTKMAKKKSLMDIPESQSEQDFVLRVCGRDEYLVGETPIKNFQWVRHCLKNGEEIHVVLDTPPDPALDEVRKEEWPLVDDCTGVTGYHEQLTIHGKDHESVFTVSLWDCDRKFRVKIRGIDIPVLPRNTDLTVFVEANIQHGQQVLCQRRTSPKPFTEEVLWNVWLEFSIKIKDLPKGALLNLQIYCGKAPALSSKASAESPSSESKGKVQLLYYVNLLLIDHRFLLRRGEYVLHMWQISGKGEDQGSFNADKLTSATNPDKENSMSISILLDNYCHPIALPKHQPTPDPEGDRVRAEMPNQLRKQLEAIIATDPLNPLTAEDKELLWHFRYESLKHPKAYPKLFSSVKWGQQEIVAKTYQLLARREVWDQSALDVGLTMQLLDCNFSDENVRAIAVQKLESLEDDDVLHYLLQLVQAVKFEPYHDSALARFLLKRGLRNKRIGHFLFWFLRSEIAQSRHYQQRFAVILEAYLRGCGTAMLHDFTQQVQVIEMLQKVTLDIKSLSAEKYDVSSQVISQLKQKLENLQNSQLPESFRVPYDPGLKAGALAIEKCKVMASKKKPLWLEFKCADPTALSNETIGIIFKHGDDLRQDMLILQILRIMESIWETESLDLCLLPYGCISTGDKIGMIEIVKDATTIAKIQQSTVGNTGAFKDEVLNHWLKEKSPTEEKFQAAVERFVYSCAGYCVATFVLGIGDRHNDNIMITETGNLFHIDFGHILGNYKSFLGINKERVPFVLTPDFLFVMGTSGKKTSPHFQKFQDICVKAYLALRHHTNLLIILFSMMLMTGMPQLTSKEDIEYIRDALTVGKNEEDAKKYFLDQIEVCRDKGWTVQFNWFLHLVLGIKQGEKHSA
On to `CCCNC(=O)Nc1nc2c(s1)-c1c(cnn1-c1ccc(C(=O)NC)cc1C(F)(F)F)C2`, for which the IC50 was under 800 nM.

Consider `O=C(NCc1ccsc1)Nc1nc2c(s1)-c1c(cnn1-c1ccccc1C(F)(F)F)C2`, for which the IC50 was under 800 nM.

`CN(C)CCNC(=O)Nc1nc2c(s1)-c1c(cnn1-c1ccccc1C(F)(F)F)C2` yielded an IC50 of under 800 nM.

For the compound `Nc1cc(CCNC(=O)Nc2nc3c(s2)-c2c(cnn2-c2ccccc2C(F)(F)F)C3)nn1CCO`, the IC50 was under 800 nM.

In turn, `CCn1cnc(CCNC(=O)Nc2nc3c(s2)-c2c(cnn2-c2cc(F)ccc2C(F)(F)F)C3)c1` gave an IC50 of under 800 nM.

`CNC(=O)Nc1nc2c(s1)-c1c(cnn1-c1ccccc1C(F)(F)F)C2` came in with an IC50 of under 800 nM.

`CC(C)n1nc(CCNC(=O)Nc2nc3c(s2)-c2c(cnn2-c2ccccc2C(F)(F)F)C3)cc1N`: the IC50 is under 800 nM.

In turn, `O=C(NCc1ccncc1)Nc1nc2c(s1)-c1c(cnn1-c1ccccc1C(F)(F)F)C2` showed an IC50 of under 800 nM.

Regarding `O=C(NCc1ccoc1)Nc1nc2c(s1)-c1c(cnn1-c1ccccc1C(F)(F)F)C2`, the IC50 was under 800 nM.

`CCn1nc(CCNC(=O)Nc2nc3c(s2)-c2c(cnn2-c2ccccc2C(F)(F)F)C3)cc1N` yielded an IC50 of under 800 nM.

Take `O=C(NCc1cc(C2CC2)n[nH]1)Nc1nc2c(s1)-c1c(cnn1-c1ccccc1Cl)C2`: the IC50 is under 800 nM.

The compound `CCc1cc(=O)n(CCNC(=O)Nc2nc3c(s2)-c2c(cnn2-c2ccccc2C(F)(F)F)C3)[nH]1` returned an IC50 of under 800 nM.

The compound `O=C(NCc1ncc[nH]1)Nc1nc2c(s1)-c1c(cnn1-c1ccccc1Cl)C2` yielded a half-inhibitory concentration (IC50) of under 800 nM.

As for `CC(C)(C)OC(=O)N[C@H]1CC[C@H](CNC(=O)Nc2nc3c(s2)-c2c(cnn2-c2ccccc2Cl)C3)CC1`, the IC50 is under 800 nM.

`CCc1cc(CC)n(CCNC(=O)Nc2nc3c(s2)-c2c(cnn2-c2ccccc2C(F)(F)F)C3)n1` showed an IC50 of under 800 nM.

Compound `CC(C)(C)OC(=O)CCNC(=O)Nc1nc2c(s1)-c1c(cnn1-c1ccccc1C(F)(F)F)C2` displayed an IC50 of under 800 nM.

In the case of `O=C(NCc1nnn[nH]1)Nc1nc2c(s1)-c1c(cnn1-c1ccccc1Cl)C2`, the IC50 is under 800 nM.

Turning to `CCCNC(=O)Nc1nc2c(s1)-c1c(cnn1-c1ccccc1C(F)(F)F)C2`, the IC50 is under 800 nM.

With `O=C(NCCN1CCOCC1)Nc1nc2c(s1)-c1c(cnn1-c1ccccc1Br)C2`, the IC50 was under 800 nM.

`CC(C)Cn1nc(CCNC(=O)Nc2nc3c(s2)-c2c(cnn2-c2ccccc2C(F)(F)F)C3)cc1N` had an IC50 of under 800 nM.

`CN(C)C(=O)Nc1nc2c(s1)-c1c(cnn1-c1ccccc1C(F)(F)F)C2` displayed an IC50 of under 800 nM.

Consider `CCOC(=O)CNC(=O)Nc1nc2c(s1)-c1c(cnn1-c1ccccc1C(F)(F)F)C2`, for which the IC50 was under 800 nM.

Take `O=C(Nc1nc2c(s1)-c1c(cnn1-c1ccccc1Cl)C2)N1CCC2(CC1)C(=O)NCN2c1ccccc1`: the IC50 was under 800 nM.

`CC1CC(c2ccc(O)cc2)CN1C(=O)Nc1nc2c(s1)-c1c(cnn1-c1ccccc1Cl)C2` (configuration not stated) displayed an IC50 of under 800 nM.

In turn, `CCOC(Cn1nc(CCNC(=O)Nc2nc3c(s2)-c2c(cnn2-c2ccccc2C(F)(F)F)C3)cc1N)OCC` came in with an IC50 of under 800 nM.

For `CCc1cnc(CCNC(=O)Nc2nc3c(s2)-c2c(cnn2-c2cc(Cl)ccc2Cl)C3)o1`, the IC50 was under 800 nM.

Take `Nc1cc(CCNC(=O)Nc2nc3c(s2)-c2c(cnn2-c2ccccc2C(F)(F)F)C3)[nH]n1`: the IC50 is under 800 nM.

Compound `Cc1c[nH]c(CCNC(=O)Nc2nc3c(s2)-c2c(cnn2-c2ccccc2Cl)C3)n1` returned an IC50 of under 800 nM.

In turn, `CCCNC(=O)Nc1nc2c(s1)-c1c(cnn1-c1ccccc1Br)C2` came in with an IC50 of under 800 nM.

`Nc1cc(CNC(=O)Nc2nc3c(s2)-c2c(cnn2-c2ccccc2C(F)(F)F)C3)nn1-c1ccccc1`: the IC50 is under 800 nM.

In turn, `O=C1Cc2ccccc2CN1CC1CCN(C(=O)Nc2nc3c(s2)-c2c(cnn2-c2ccccc2Cl)C3)C1` (configuration not stated) had a 50% inhibitory concentration (IC50) of under 800 nM.

`CC(C)CNC(=O)Nc1nc2c(s1)-c1c(cnn1-c1ccccc1Cl)C2`: the IC50 is under 800 nM.

For the compound `O=C(C[C@H]1CCCN1C(=O)OCc1ccccc1)Nc1nc2c(s1)-c1c(cnn1-c1ccccc1Cl)C2`, the IC50 is under 800 nM.

`CCn1cnc(CCNC(=O)Nc2nc3c(s2)-c2c(cnn2-c2ccccc2C(F)(F)F)C3)c1` registered an IC50 of under 800 nM.

Compound `CCCNC(=O)Nc1nc2c(s1)-c1c(cnn1-c1cccc(F)c1C(F)(F)F)C2` displayed an IC50 of under 800 nM.

For `CC(C)c1noc(CCNC(=O)Nc2nc3c(s2)-c2c(cnn2-c2ccccc2C(F)(F)F)C3)n1`, the IC50 was under 800 nM.

In turn, `Cc1cc(CNC(=O)Nc2nc3c(s2)-c2c(cnn2-c2ccccc2C(F)(F)F)C3)nn1C` had an IC50 of under 800 nM.

In turn, `O=C(NCc1cccnc1)Nc1nc2c(s1)-c1c(cnn1-c1ccccc1C(F)(F)F)C2` returned an IC50 of under 800 nM.

For the compound `Nc1cc(CNC(=O)Nc2nc3c(s2)-c2c(cnn2-c2ccccc2C(F)(F)F)C3)nn1C1CCCC1`, the IC50 is under 800 nM.

For the compound `CC(C)NC(=O)Nc1nc2c(s1)-c1c(cnn1-c1ccccc1Br)C2`, the IC50 is under 800 nM.

In turn, `O=C(NCc1ccco1)Nc1nc2c(s1)-c1c(cnn1-c1ccccc1C(F)(F)F)C2` gave an IC50 of under 800 nM.

Compound `O=C(Nc1nc2c(s1)-c1c(cnn1-c1ccccc1Cl)C2)N1CCC(n2cnc3ccccc32)CC1` showed an IC50 of under 800 nM.

Compound `Cc1onc(-c2ccccc2)c1CNC(=O)Nc1nc2c(s1)-c1c(cnn1-c1ccccc1C(F)(F)F)C2` had an IC50 of under 800 nM.

Compound `O=C(Nc1nc2c(s1)-c1c(cnn1-c1ccccc1Cl)C2)Nc1ccccc1CN1CCNC1=O` registered an IC50 of under 800 nM.

Consider `CN1CCC(CNC(=O)Nc2nc3c(s2)-c2c(cnn2-c2ccccc2Cl)C3)CC1`, for which the IC50 was under 800 nM.

Consider `CCCn1cnc(CCNC(=O)Nc2nc3c(s2)-c2c(cnn2-c2ccccc2C(F)(F)F)C3)c1`, for which the IC50 was under 800 nM.

Compound `CN(Cc1cnn(C)c1)C(=O)Nc1nc2c(s1)-c1c(cnn1-c1ccccc1C(F)(F)F)C2` registered an IC50 of under 800 nM.

On to `CC(C)c1nnc(CCNC(=O)Nc2nc3c(s2)-c2c(cnn2-c2ccccc2Cl)C3)o1`, for which the IC50 was under 800 nM.

On to `O=C(NCCc1nc(C2CC2)no1)Nc1nc2c(s1)-c1c(cnn1-c1ccccc1C(F)(F)F)C2`, for which the IC50 is under 800 nM.

As to `O=C(Nc1nc2c(s1)-c1c(cnn1-c1ccccc1Cl)C2)N1CCCC(c2nc3ccccc3[nH]2)C1` (configuration not stated), the IC50 is under 800 nM.

`O=C(NCc1ccccc1-n1cccn1)Nc1nc2c(s1)-c1c(cnn1-c1ccccc1Cl)C2` had an IC50 of under 800 nM.

Compound `Cc1cc(-c2ccco2)n(CCNC(=O)Nc2nc3c(s2)-c2c(cnn2-c2ccccc2C(F)(F)F)C3)n1` gave an IC50 of under 800 nM.

In turn, `CCc1nnc(CCNC(=O)Nc2nc3c(s2)-c2c(cnn2-c2ccccc2Cl)C3)o1` gave an IC50 of under 800 nM.

With `CCNC(=O)Nc1nc2c(s1)-c1c(cnn1-c1cc(Cl)ccc1Cl)C2`, the IC50 was under 800 nM.

In the case of `O=C(NCc1cc(C2CC2)n[nH]1)Nc1nc2c(s1)-c1c(cnn1-c1ccccc1C(F)(F)F)C2`, the IC50 was under 800 nM.

`Cc1cc(=O)n(CCNC(=O)Nc2nc3c(s2)-c2c(cnn2-c2ccccc2C(F)(F)F)C3)[nH]1`: the IC50 is under 800 nM.

Take `CC(C)(C)n1nc(CCNC(=O)Nc2nc3c(s2)-c2c(cnn2-c2ccccc2C(F)(F)F)C3)cc1N`: the IC50 was under 800 nM.

Turning to `O=C(NCCc1nc(C2CC2)no1)Nc1nc2c(s1)-c1c(cnn1-c1ccccc1Cl)C2`, the IC50 was under 800 nM.

Take `O=C(Nc1nc2c(s1)-c1c(cnn1-c1ccccc1Cl)C2)N1CCC(N2Cc3ccccc3NC2=O)C1` (configuration not stated): the IC50 is under 800 nM.

Compound `CCN1CCC2(CCN(C(=O)Nc3nc4c(s3)-c3c(cnn3-c3ccccc3Cl)C4)C2)C1` (configuration not stated) gave an IC50 of under 800 nM.

`CN(C)C(=O)CNC(=O)Nc1nc2c(s1)-c1c(cnn1-c1cc(Cl)ccc1Cl)C2` showed a concentration for half-maximal inhibition (IC50) of under 800 nM.

`CC(C)(C)CCNC(=O)Nc1nc2c(s1)-c1c(cnn1-c1ccccc1Cl)C2` registered an IC50 of under 800 nM.

`CC(C)(C)OC(=O)CC1(O)CCN(C(=O)Nc2nc3c(s2)-c2c(cnn2-c2ccccc2Cl)C3)CC1` gave an IC50 of under 800 nM.

`Nc1cc(CCNC(=O)Nc2nc3c(s2)-c2c(cnn2-c2ccccc2C(F)(F)F)C3)nn1CC(F)(F)F` had an IC50 of under 800 nM.

For `O=C(NCC1CCCN(c2ncccn2)C1)Nc1nc2c(s1)-c1c(cnn1-c1ccccc1Cl)C2` (configuration not stated), the IC50 was under 800 nM.

For the compound `NC(=O)c1cccc(CNC(=O)Nc2nc3c(s2)-c2c(cnn2-c2ccccc2Cl)C3)c1`, the IC50 was under 800 nM.

Turning to `O=C(NCc1cocn1)Nc1nc2c(s1)-c1c(cnn1-c1ccccc1C(F)(F)F)C2`, the IC50 is under 800 nM.

For `CCc1cnc(CCNC(=O)Nc2nc3c(s2)-c2c(cnn2-c2ccccc2C(F)(F)F)C3)o1`, the IC50 is under 800 nM.

`Cc1nn(C)cc1CNC(=O)Nc1nc2c(s1)-c1c(cnn1-c1ccccc1C(F)(F)F)C2` returned an IC50 of under 800 nM.

`O=C(NCCc1ccccc1)Nc1nc2c(s1)-c1c(cnn1-c1ccccc1Cl)C2` showed an IC50 of under 800 nM.

On to `CN(CCc1cn[nH]c1)C(=O)Nc1nc2c(s1)-c1c(cnn1-c1ccccc1C(F)(F)F)C2`, for which the IC50 was under 800 nM.

Turning to `Cc1nc[nH]c1-c1cccc(CNC(=O)Nc2nc3c(s2)-c2c(cnn2-c2ccccc2Cl)C3)c1`, the IC50 is under 800 nM.

Consider `CC(C)(O)Cn1cnc(CCNC(=O)Nc2nc3c(s2)-c2c(cnn2-c2ccccc2C(F)(F)F)C3)c1`, for which the IC50 was under 800 nM.

The compound `CC(C)(C)OC(=O)NCC1CCCN1C(=O)Nc1nc2c(s1)-c1c(cnn1-c1ccccc1Cl)C2` (configuration not stated) returned an IC50 of under 800 nM.

For `Cc1cc(C)n(CCNC(=O)Nc2nc3c(s2)-c2c(cnn2-c2ccccc2C(F)(F)F)C3)n1`, the IC50 was under 800 nM.

`O=C(NCc1ccccc1N1CCCCC1)Nc1nc2c(s1)-c1c(cnn1-c1ccccc1Cl)C2` yielded an IC50 of under 800 nM.

Compound `O=C(NCc1nnn[nH]1)Nc1nc2c(s1)-c1c(cnn1-c1ccccc1Br)C2` displayed an IC50 of under 800 nM.

With `CCc1nnc(CCNC(=O)Nc2nc3c(s2)-c2c(cnn2-c2ccccc2C(F)(F)F)C3)o1`, the IC50 is under 800 nM.

`CC(C)(C)OC(=O)NCc1ccccc1NC(=O)Nc1nc2c(s1)-c1c(cnn1-c1ccccc1Cl)C2` displayed an IC50 of under 800 nM.

For the compound `O=C(NCCCN1CCNC1=O)Nc1nc2c(s1)-c1c(cnn1-c1ccccc1Cl)C2`, the IC50 is under 800 nM.

In the case of `O=C(NCc1cccs1)Nc1nc2c(s1)-c1c(cnn1-c1ccccc1C(F)(F)F)C2`, the IC50 was under 800 nM.

For the compound `O=C1CC[C@H](NC(=O)Nc2nc3c(s2)-c2c(cnn2-c2ccccc2Cl)C3)CN1`, the IC50 was under 800 nM.
